This note sets out measurements from article PMC10077475, “DG9-conjugated morpholino rescues phenotype in SMA mice by reaching the CNS via a subcutaneous administration” (JCI Insight, 2023).

The assay concerns severe SMA mouse model (Taiwanese model). Put plainly: Survival of severe SMA mice after a single subcutaneous injection at PD0. Conditions: single subcutaneous injection at PD0, 40 mg/kg, until humane endpoint. The class given is in vivo. The protocol:
To examine whether DG9 peptide can increase the efficacy of PMO, we conjugated it to an 18-mer PMO with a sequence identical to nusinersen. The DG9-PMO, unconjugated PMO, and MOE were injected into SMA model mice [Cg-Tg(SMN2)2HungSmn1^tm1Hung/J; abbreviated as Smn^–/– SMN2^Tg/Tg; commonly called the Taiwanese model]. We also used an arginine-rich peptide (R6G) that is currently being explored in clinical trials for Duchenne muscular dystrophy (DMD) and used in preclinical studies for Hutchinson-Gilford progeria syndrome ([37], [38]). The benchmark control peptide R6G was conjugated to the same PMO sequence used in our study (R6G-PMO). […] We subcutaneously injected mice with the AOs or saline (nontreated, NT) administered at postnatal day 0 (PD0) at 2 doses: 40 mg/kg or 80 mg/kg. In our preliminary experiments, we also tested lower doses of 10 and 20 mg/kg (data not shown). […] The survival was recorded until a humane endpoint was reached. For the 40 mg/kg doses, the median survival was 12 days for unconjugated PMO, 15.5 days for MOE, and 17 days for R6G-PMO, which was increased to 58 days for DG9-PMO treatment (Figure 1A and Supplemental Figure 1A; supplemental material available online with this article; https://doi.org/10.1172/jci.insight.160516DS1). The median survival increased to 57 days for unconjugated PMO, 64 days for MOE, and 121 days for DG9-PMO at the higher dose of 80 mg/kg (Figure 1A). […] In spite of no statistical difference between DG9-PMO and MOE groups, the median survival of DG9-PMO still was higher than MOE, as only 1 mouse was alive until PD200 following a 40 mg/kg injection of MOE.
SMA-transgenic mice [JAX stock 005058 FVB.Cg-Tg(SMN2)2HungSmn1^tm1Hung/J] (Smn^–/–; SMN2^Tg/Tg), also known as Taiwanese mice, were purchased from Jackson Laboratory. Heterozygous mice for Smn1 (Smn1^+/–; SMN2^–/–) generated by us were crossed with mice homozygous for Smn1 Smn^–/–; SMN2^Tg/Tg generated by us to obtain the SMA mice (Smn^–/–; SMN2^Tg/–) or the heterozygous healthy control (Smn1^+/–; SMN2^Tg/–). The SMA mice display a severe overt phenotype similar to patients with SMA type I. The mice were genotyped using a PCR assay on genomic DNA isolated from tail biopsies using the Phire Tissue Direct PCR Kit (Thermo Fisher Scientific) as per the manufacturer’s instructions. The DNA was amplified using the primers described in Supplemental Table 1 using the condition Mouse Smn: 98°C/5 minutes → 98°C/5 s 58°C/10 s 72°C/10 s × 35 cycles → 72°C/1 minute.
Injections were carried out using a 30-gauge Hamilton syringe. SMA mice identified following genotyping were randomly assigned to a treatment group. The researcher injecting mice was blinded to the treatment. SMA neonates were subcutaneously injected with 40 or 80 mg/kg of AOs at PD0, while NT and heterozygous control mice were injected with saline (n = 10–49) per group. Tissues including the quadriceps muscle, liver, kidney, spleen, diaphragm, intercostal muscle, heart, brain, and spinal cord were collected and snap-frozen in dry ice– cooled isopentane, then subsequently stored at –80°C.

For the substance RRRRRRG [R6G-PMO], the median survival is recorded as 17 days.
